Test results reported in patent US20210052547A1 (priority 2016, published 2021).

Experiments:
[1] = target: CYP1A2 (Homo sapiens, UniProt P05177); settings: cited from earlier work
[2] = target: lactate dehydrogenase 1 (LDH-1) (Homo sapiens, UniProt P07195); settings: in neurons; cited from earlier work
[3] = target: CYP3A4 (Homo sapiens, UniProt P08684); settings: cited from earlier work
[4] = tested on: rats exposed to ethylene glycol; experiment: murine model of ethylene glycol poisoning; format: in vivo, rat
Protocol: A murine model of ethylene glycol poisoning has been prepared by giving 6 g/kg ethylene glycol orally once to twelve adult Sprague-Dawley rats (single oral administration).
Rats have been sacrificed 48 hours after ethylene glycol intake, blood and urine parameters have been collected and kidneys have been removed for histopathological analyses.

[5] = tested on: calcium-oxalate kidney stone murine model; experiment: calcium-oxalate kidney stone murine model (calcium chloride and hydroxyproline in drinking water); format: in vivo, rat; settings: Stiripentol 4 g/L in drinking water (about 150 mg/Kg), 4 months, versus controls
Description: A calcium-oxalate kidney stone murine model has been generated. […] The rats have been exposed for 4 month to this diet. […] Rats have been sacrificed at the end of the protocol and kidneys have been removed for analyses.

[6] = tested on: uptake of gamma-aminobutyric acid (GABA); settings: cited from earlier work
[7] = target: lactate dehydrogenase 5 (LDH-5) (Homo sapiens, UniProt P00338); settings: in neurons; cited from earlier work

Sequence of lactate dehydrogenase 1 (LDH-1) (P07195 2-334 limits assumed): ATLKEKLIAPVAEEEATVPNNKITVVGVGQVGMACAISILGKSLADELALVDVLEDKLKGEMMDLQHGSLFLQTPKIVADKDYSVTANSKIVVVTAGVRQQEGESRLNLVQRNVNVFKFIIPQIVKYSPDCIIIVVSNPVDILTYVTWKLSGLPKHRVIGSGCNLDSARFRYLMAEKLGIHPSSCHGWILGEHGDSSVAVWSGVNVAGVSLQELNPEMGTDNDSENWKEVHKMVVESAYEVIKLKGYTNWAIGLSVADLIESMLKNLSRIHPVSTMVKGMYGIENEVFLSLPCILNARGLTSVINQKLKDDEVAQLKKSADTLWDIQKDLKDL
Sequence of CYP1A2 (P05177 whole entry): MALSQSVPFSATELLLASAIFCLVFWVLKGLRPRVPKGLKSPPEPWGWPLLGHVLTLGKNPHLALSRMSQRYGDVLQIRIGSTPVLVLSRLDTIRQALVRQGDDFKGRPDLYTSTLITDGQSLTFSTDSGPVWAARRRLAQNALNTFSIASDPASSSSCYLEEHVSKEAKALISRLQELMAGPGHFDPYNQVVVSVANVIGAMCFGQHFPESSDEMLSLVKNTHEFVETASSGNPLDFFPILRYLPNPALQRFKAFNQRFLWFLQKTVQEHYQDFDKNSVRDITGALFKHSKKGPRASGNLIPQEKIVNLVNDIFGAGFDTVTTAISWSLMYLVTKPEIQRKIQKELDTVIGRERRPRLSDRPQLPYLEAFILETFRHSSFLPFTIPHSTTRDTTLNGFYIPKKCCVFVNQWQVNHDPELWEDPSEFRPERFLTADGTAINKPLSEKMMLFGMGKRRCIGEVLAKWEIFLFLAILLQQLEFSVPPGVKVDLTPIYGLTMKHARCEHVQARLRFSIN
Sequence of CYP3A4 (P08684 whole entry): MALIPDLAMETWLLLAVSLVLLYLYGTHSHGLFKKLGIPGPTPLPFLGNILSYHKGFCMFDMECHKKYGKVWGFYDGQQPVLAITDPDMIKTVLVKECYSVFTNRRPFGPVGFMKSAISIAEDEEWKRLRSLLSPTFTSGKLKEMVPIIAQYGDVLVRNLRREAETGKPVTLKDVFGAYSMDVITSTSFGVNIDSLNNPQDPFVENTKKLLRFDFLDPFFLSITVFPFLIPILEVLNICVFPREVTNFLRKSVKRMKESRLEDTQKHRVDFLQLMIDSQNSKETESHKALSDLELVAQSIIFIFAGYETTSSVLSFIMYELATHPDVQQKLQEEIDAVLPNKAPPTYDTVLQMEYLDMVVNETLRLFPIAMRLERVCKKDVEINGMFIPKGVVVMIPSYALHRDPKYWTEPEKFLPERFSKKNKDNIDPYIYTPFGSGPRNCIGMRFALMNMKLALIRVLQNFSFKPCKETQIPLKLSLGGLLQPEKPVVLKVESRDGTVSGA

| Structure (SMILES) | inhibition of CYP1A2 [1] | inhibition of pyruvate to lactate conversion by LDH-1 [2] | inhibition of CYP3A4 [3] | calcium oxalate crystals in kidneys (histopathology, kidney section coverage) ([4]; 6 g/kg ethylene glycol orally once, Stiripentol 300 mg/kg at intoxication and 4 g/L in drinking water days 1 and 2, 48 hours, p=0.0046) | urinary oxalate excretion induced by ethylene glycol poisoning ([4]; Stiripentol at therapeutic range) | renal function assessed by serum creatinine levels ([4]; ethylene glycol intoxicated rats, Stiripentol 300 mg/kg then 4 g/L in drinking water, 48 hours, p=0.009) | calcium oxalate crystals in urine [5] | renal function assessed by serum creatinine levels ([5]; p=0.002) | inhibition of the uptake of GABA [6] | inhibition of pyruvate to lactate conversion by LDH-5 [7] |
| --- | --- | --- | --- | --- | --- | --- | --- | --- | --- | --- |
| CC(C)(C)C(O)/C=C/c1ccc2c(c1)OCO2 (racemic) [Stiripentol, 4,4-dimethyl-1-[(3,4-methylenedioxy)-phenyl]-1-penten-3-ol] | inhibitor | inhibit | inhibitor | much less crystals | decreases urinary oxalate excretion | remarkably less impaired | less calcium oxalate crystals in urine | preserved renal function | inhibits | – |
| C/C=C/c1ccc2c(c1)OCO2 [Isosafrole, 3,4-methylenedioxyphenyl-1-propene] | – | inhibit | – | – | – | – | – | – | – | inhibit |
